Measurements from patent US20220354836A1, “Equine Esomeprazole Formulations and Methods of Use” (priority 2019, published 2022).
Entries after “also recorded” stand apart in the source; their conditions may differ.

What was measured:
[1] = Particle size distribution (Malvern MASTERSIZER 2000); format: physicochemical; details: sterilized drug substance from Shouguang Fukang Pharma Co.; average of three measurements
Procedure: Particle size distribution may be measured, for example, using a Malvern MASTERSIZER 2000 instrument. After 24 hours storage, a particle size distribution (PSD) was performed using a Malvern MASTERSIZER 2000. The measuring range of the instrument is 0.02-2000 μm, with refractive index dispersant 1.375—hexanes, obscuration range 5-20%, sample/background measurement time=1, 5000 sample/background measurement snaps, and manual stirring speed 2000 rpm.

[2] = Pharmacokinetics after multiple intramuscular doses to horses
Procedure: Eighteen adult horses were randomized into three equal treatment groups and assigned one of three doses: 2 mg/kg (1×), 6 mg/kg (3×), or 10 mg/kg (5×). Doses were administered intramuscularly. Each horse received the assigned dose three times, seven days apart. Blood samples were collected at 1, 2, 4, 6, 8, 12, 24, 36, 48, 72, 96, 120, 144 hrs after each dosing, then every 48 hours until Day 28. Esomeprazole was quantified by LC-MS/MS. Data were subjected to noncompartmental analysis.

Row | SMILES | Median particle size [1] | Dose normalization of Cmax and area under the curve (kinetic linearity) ([2]; across 2, 6 and 10 mg/kg intramuscular) | Time for which drug was detectable ([2]; after the final dose in the 5× group (10 mg/kg intramuscular)) | Mean half-life ([2]; horse, in vivo, im, 10 mg/kg) | half-life ([2]; horse, in vivo, im, 10 mg/kg, Mean half-life) | Tolerability ([2]; in vivo) | Absorption from the injection site ([2]; intramuscular, horses) | Injection site reaction ([2]; one horse in the 3× group (6 mg/kg intramuscular))
1 | COc1ccc2[n-]c([S@@+]([O-])Cc3ncc(C)c(OC)c3C)nc2c1.COc1ccc2[n-]c([S@@+]([O-])Cc3ncc(C)c(OC)c3C)nc2c1.O.O.[Mg+2] [esomeprazole magnesium dihydrate] | 2.01 μm | – | – | – | – | – | – | –
2 | COc1ccc2nc([S@@+]([O-])Cc3ncc(C)c(OC)c3C)[nH]c2c1 [esomeprazole sodium] | 18.84 μm | – | – | – | – | – | – | –
3 | COc1ccc2nc([S@@+]([O-])Cc3ncc(C)c(OC)c3C)[nH]c2c1 [esomeprazole] | – | linear pharmacokinetics; also recorded: Linear kinetic properties were observed | 96 ± 26.29 h | 12 to 24 h | 11.6 to 24.5 h | well tolerated | rapidly absorbed | A single mild, self-resolving, injection site reaction
